Measured values: patent US9326956B2, “Methods for improving brain development and cognitive function using beta-hydroxy-beta methylbutyrate” (Abbott Laboratories, priority 2011, dated 2016)

What was measured:
[1] = HMB concentration over time in brain interstitial fluid (hippocampus microdialysis) after oral administration; type: in vivo, Sprague-Dawley rats
Experimental: In this Example, the appearance of HMB and its concentration over time in brain interstitial fluid were analyzed after oral administration of HMB.
Initially, Sprague-Dawley rats (Charles River, France) weighing 400-500 g were housed in cages at constant room temperature (22±2° C.) and 45-55% humidity under a regular 12-hour light/dark schedule. Food and water were freely available. Procedures involving animals and their care were conducted in conformity with the institutional guidelines that are in compliance with national laws and EC policies for the Care and Use of Laboratory Animals (RD 2101-2005, 86/609/CEE).
A guide cannula was stereotaxically inserted into the hippocampus area of each anesthetized rat at the coordinates described in a stereotaxic atlas for rats. The rats were allowed to recover from surgery for at least three days. On the first day of the experiment, a brain microdialysis probe (MD-2204, BR-4, 4 mm membrane, available from BASi, West Lafayette, Ind.) was inserted into the guide cannula of each rat. The probe was perfused with Ringer's solution (aCFS Harvard apparatus, #597316) at a constant rate of 2 μl/min. The rat was left in the cage with space for relatively free movement. Samples of dialysate were automatically collected every twenty minutes. A bolus dose of HMB (250 mg/kg body weight) was given by gavage 100 min after starting the experiment and sampling was continued for another 160-220 min.
HMB was measured using UPLC-MS. Specifically, samples of 30-40 μl in aCSF were microfiltered through a 0.2 μm nylon filter, diluted with an equal amount of water, and then injected into the UPLC-TQD (Acuity-TQD system available from Waters Corporation, Milford, Mass.). HMB was analyzed using a BEH Hillic column 1.7 μm; 2.1×150 mm using a gradient consisting of H2O:MeCN 0.1% formic acid. The mass spectrometer was set to Ion Mode ES+.

Neuro-2A cells = test: Rate of protein synthesis, incorporation of [3H]-tyrosine into cellular protein pool; type: cell-based; conditions: HMB vs. Control, FIG. 4
Experimental: The effect of HMB on the rate of protein synthesis in Neuro-2A cells was determined by measuring the incorporation of [3H]-tyrosine into cellular protein pool. The phosphorylative status of mTOR and up/down-protein kinases (Akt, ERK 1/2) was determined by western blot. The cell proliferation/viability was determined with the MTT (3-(4,5-dimethylthiazol-2-yl)-2,5-diphenyltetrazolium bromide) colorimetric assay. Data are expressed as mean±SEM. Student t-test was used to analyze the results.

[2] = test system: MEF2 transcription factor; test: MEF2-dependent transcription luciferase activity (pGL3-4xMEF transfection); type: cell-based; conditions: Neuro 2A cells; inhibitor added with HMB; FIGS. 5B-5D
Experimental: For the transfection experiments in this Example, Neuro-2A cells were used at 80-90% confluence grown in Dulbecco's Modified Eagle's medium (DMEM). Cells were exposed for 5 hours to plasmid pGL3-4×MEF, which contains 4 copies in tandem of the MEF2D binding DNA sequence prior to the sequence of DNA which codes for firefly luciferase. Effectors were added to the medium for 18 h and luciferase activity was determined. For the study of inhibition of signaling factors, inhibitors of the phosphatidyl-inositol 3 kinase (LY294002), ERK 1/2 (PD98059) and mTORC1 activations (rapamycin) were added to the cells.
Data are expressed as mean±SEM. Student t-test was used to analyze the results.

SMILES	crossing of the blood brain barrier ([1]; oral administration, microdialysis model in rats)	maximum concentration of HMB measured in brain microdialysates ([1]; rat 1, 250 mg/kg bolus by gavage)	time after administration at which HMB appeared in the brain ([1]; rat 1, 250 mg/kg bolus by gavage, brain microdialysate (fraction 7))	HMB concentration level at end of sampling ([1]; rat 1, more than 2.5 hours after the gavage)	maximum concentration of HMB in brain microdialysates ([1]; rat 2, 250 mg/kg bolus by gavage)	fraction in which HMB was detected for the first time ([1]; rat 2, 250 mg/kg by gavage at fraction 5, 20 min fractions)	HMB concentration level at end of experiment ([1]; rat 2, more than 3.5 h after the gavage)	increase on the protein synthesis (Neuro-2A cells)	effect of inhibitor on the HMB-mediated increase in MEF2 [2]
CC(C)(O)CC(=O)O [HMB, beta-hydroxy-beta-methylbutyrate]	able to cross the blood brain barrier	10.5 ppm	40 min	had not decreased	more than 4 ppm	fraction 7	had not yet reached basal level	20%	
COc1cccc(-c2cc(=O)c3ccccc3o2)c1N [PD98059]									totally blocked
